The text below walks through data of US12018281B2, “Cardiomyocyte maturation promoter” (Kyoto University, priority 2018, dated 2024).

In assay [1] the test system is cardiomyocytes derived from double knock-in human iPS cell lines (EmGFP at TNNI1, mCherry at TNNI3). In words: TNNI3-mCherry reporter expression by anti-mCherry immunostaining and high contents screening (Experimental Example 1). Type of assay: cell-based. As to conditions: 1 μM test compound added on 3rd and 6th culture days, measured on 8th culture day; Alexa 647 (anti-mCherry); average of n=3; control well (no addition) 797. As to the method: (§1) For detection of cardiomyocyte maturation, double knock-in human iPS cell lines, in which reporter protein sequences, EmGFP (Sequence Number 1) and mCherry (Sequence Number 2) were inserted into gene loci for TNNI1 and TNNI3, respectively, were prepared (the human iPS cells were prepared from episomal vector (loaded gene; OCT3/4, KLF4, SOX2, L-MYC, LIN28, mouse p53DD) using PBMC (LP_167, Sample ID:20130318) purchased from CTL (reference literature; Okita K, et al. Stem Cells. 2012 Nov. 29. doi: 10.1002/stem.1293)).
(§2) The maintenance culture of the above-mentioned reporter iPS cell lines was carried out by a conventional method (Okita K, et al. Stem Cells. 2012 Nov. 29. doi: 10.1002/stem.1293).
For differentiation induction into cardiomyocytes, the reporter iPS cell lines were treated with 0.5×TrypLE select (Life Technologies, diluted in ½ with 0.5 mM EDTA/PBS) for 4 to 5 minutes, and the cells were exfoliated using a cell scraper (IWAKI), and then dissociated into the single cell by pipetting. The medium was removed by centrifugation (1,000 rpm, 5 min), and the obtained cells were seeded on a bioreactor (ABLE) by 1×10^7 cells per 30 mL of the bioreactor, and then cultured in a medium prepared by adding 1% L-glutamine, transferrin 150 μg/mL, ascorbic acid 50 μg/mL (Sigma), monothioglycerol 4×10^−4 M, 10 μM Rock inhibitor (Y-27632), 2 ng/mL BMP4 (R&D) and 0.5% Matrigel (Growth Factor Reduced) to a medium after removal of solution C from StemFit AK02 (AJINOMOTO AK02, 400 mL of solution A and 100 mL of B solution, total 500 mL), at 37° C., under 5% oxygen condition (55 rpm, stirred suspension culture method) to form embryoid bodies (0 day).
Next day (1st day), 9 μL (final concentration 3 ng/mL) of […], 15 μL (final concentration 5 ng/mL) of 10 μg/mL bFGF and […] (final concentration 10 ng/mL) of 10 μg/mL BMP4 were added to the bioreactor, and the cells were cultured at 37° C. for additional 2 days, under 5% oxygen condition.
Then (3rd day), the obtained embryoid bodies were collected in a 50 mL centrifuge tube, and then subjected to centrifugation (200 g, 1 min). The medium was removed, and the embryoid bodies were cultured in a medium prepared by adding 1% L-glutamine, transferrin 150 μg/mL, ascorbic acid 50 μg/mL (Sigma), monothioglycerol 4×10^−4 M, 10 ng/mL VEGF, 1 μM IWP-3, 0.6 μM dorsomorphin and 5.4 μM SB431542 to a medium after removal of solution C from StemFit AK02 (AJINOMOTO AK02, 400 mL of solution A and 100 mL of B solution, total 500 mL), at 37° C. for 3 days, under 5% oxygen condition (55 rpm, stirred suspension culture method).
Then (6th day), the bioreactor was left to stand to precipitate the embryoid bodies, and 80 to 90% of the medium was removed. A medium prepared by adding 1% L-glutamine, transferrin 150 μg/mL, ascorbic acid 50 μg/mL (Sigma), monothioglycerol 4×10^−4 M and 5 ng/mL VEGF to a medium after removal of solution C from StemFit AK02 (AJINOMOTO AK02, 400 mL of solution A and 100 mL of B solution, total 500 mL) was added to the bioreactor so that the total volume became 30 mL, and the embryoid bodies were cultured for 8 days, at 37° C., under 5% oxygen condition (55 rpm, stirred suspension culture method). During the culture, the medium was replaced with a medium under the same conditions every 2 to 3 days.
14th Day after the start of the differentiation induction, the embryoid bodies were treated with 2 mg/mL collagenase type I (Sigma) for 2 hr, and then with 0.25% trypsin/EDTA (Invitrogen) for 10 min. 50% FBS/IMDM (Thermo Fisher Science) was added thereto, and the embryoid bodies were dissociated into the single cell by pipetting, and then subjected to centrifugation (1,000 rpm, 5 minutes). […]

Assay [2] deals with embryoid bodies/cardiomyocytes derived from double knock-in human iPS cell lines (EmGFP at TNNI1, mCherry at TNNI3). Description: mCherry expression in TNNI1+ cells by flow cytometry (Experimental Example 2). The assay is classed as cell-based. As to conditions: 40 nM, 10th to 16th day of differentiation, controls 7.4 (no addition), 10.2 (0.1% DMSO). As to the method:
as §1, §2
For differentiation induction into cardiomyocytes, the reporter iPS cell lines were treated with 0.5×TrypLE select (Life Technologies, diluted in ½ with 0.5 mM EDTA/PBS) for 4 to 5 minutes, and the cells were exfoliated using a cell scraper (IWAKI), and then dissociated into the single cell by pipetting. […]

Take `COc1ccc(/C=C\c2cc(OC)c(OC)c(OC)c2)cc1O` [Example No. 1, 2-methoxy-5-((Z)-2-(3,4,5-trimethoxyphenyl)vinyl)phenol]: the “average fluorescent intensity (at 1 μM)” value in assay [1] is recorded as 1381.
For the compound `CCn1nnc2cc(COC(=O)Nc3sc(-c4ccc(C)cc4OC)nc3C)ccc21` [Example No. 2, (1-ethyl-1H-benzotriazol-5-yl)methyl (2-(2-methoxy-4-methylphenyl)-4-methyl-1,3-thiazol-5-yl)carbamate], the “average fluorescent intensity (at 1 μM)” value in assay [1] stood at 1331. Moreover, the “mCherry+ (%)” value in assay [2] is listed as 36.1%.
In the case of `CC[C@]1(O)C[C@H]2CN(CCc3c([nH]c4ccccc34)[C@@](C(=O)OC)(c3cc4c(cc3OC)N(C=O)[C@H]3[C@@](O)(C(=O)OC)[C@H](OC(C)=O)[C@]5(CC)C=CCN6CC[C@]43[C@@H]65)C2)C1` [Example No. 3, (2′beta)-22-oxovincaleukoblastine], the “average fluorescent intensity (at 1 μM)” value in assay [1] worked out at 1710.
Take `Clc1ccc(CCc2nc3cc(-c4ccco4)cnc3[nH]2)cc1` [Example No. 4, 2-(2-(4-chlorophenyl)ethyl)-6-(2-furyl)-3H-imidazo[4,5-b]pyridine]: in assay [1], the “average fluorescent intensity (at 1 μM)” value turned out to be 1125.
With `COc1ccc(C[C@H](NC(=O)[C@H](C)NC(=O)CN2CCOCC2)C(=O)N[C@@H](Cc2ccccc2)C(=O)[C@]2(C)CO2)cc1` [Example No. 5, 4,5-anhydro-1,2-dideoxy-4-methyl-2-((N-(morpholin-4-ylacetyl)-L-alanyl-O-methyl-L-tyrosyl)amino)-1-phenyl-L-threo-pent-3-ulose], in assay [1], the “average fluorescent intensity (at 1 μM)” value was 1791.
Still for that read-out and setting: the value for `COc1cccc(-c2cc3ccc(N(C)C)cc3c(N)n2)c1` [Example No. 6, 3-(3-methoxyphenyl)-N7,N7-dimethylisoquinoline-1,7-diamine] was 1305.
Take `COC(=O)c1c(C)[nH]c(C)c1C(=O)c1ccccc1Cc1ccccc1` [Example No. 7, methyl 4-(2-benzylbenzoyl)-2,5-dimethyl-1H-pyrrole-3-carboxylate]: the “average fluorescent intensity (at 1 μM)” value in assay [1] was determined as 1294.
Take `Nc1ccc(-c2nc3cc(-c4nc5cc(N)ccc5[nH]4)ccc3[nH]2)cc1` [Example No. 8, 2′-(4-aminophenyl)-1H,1′H-2,5′-bibenzimidazol-5-amine]: in assay [1], the “average fluorescent intensity (at 1 μM)” value was determined as 1150.
